Where a name gives a salt, the structure may show the parent alone.

The first assay deals with T1, JAK3: Recombinant human kinase domain (Homo sapiens, UniProt P52333).
T1 construct: JAK3: Recombinant human kinase domain from Millipore (Cat #14-629) or prepared; purchased Millipore 14-629
T1 sequence (P52333 822-1111 limits assumed): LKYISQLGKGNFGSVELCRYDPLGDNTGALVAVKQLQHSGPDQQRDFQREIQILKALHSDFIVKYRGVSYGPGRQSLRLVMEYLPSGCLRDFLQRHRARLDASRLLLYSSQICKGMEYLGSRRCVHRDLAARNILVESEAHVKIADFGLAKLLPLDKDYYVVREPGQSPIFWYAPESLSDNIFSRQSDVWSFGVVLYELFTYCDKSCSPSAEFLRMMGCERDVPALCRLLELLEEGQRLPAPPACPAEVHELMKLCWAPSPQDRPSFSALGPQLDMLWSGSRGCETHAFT
As to the kind of experiment: Determination of IC50 of Janus Kinase (JAK) inhibition, radioactive end-point 33P-ATP assay, JAK3. Type of assay: biochemical. Conditions: ATP 1.5 uM, peptide 50 uM, 20 minutes, read-out: JAK3-INHIB-DR/v1~NO ADDITIVE~Enzyme_Conc = 100.
`Cn1nc(-c2cnc3[nH]cc(C(=O)N[C@H]4CCC[C@H](C(N)=O)C4)c3n2)c2ccc(Cl)cc21` (relative stereo) [Example I-155, 2-(6-Chloro-1-methyl-1H-indazol-3-yl)-5H-pyrrolo[2,3-b]pyrazine-7-carboxylic acid (trans-3-carbamoyl-cyclohexyl)-amide]: the IC50 came out at 78.3 nM.

As for `C[C@@H](NC(=O)c1c[nH]c2ncc(-c3nn(C)c4cc(Cl)ccc34)nc12)[C@@H]1C[C@@H]1C#N` (single isomer, unassigned) [Example I-206], the IC50 came to 17.6 nM.

`C[C@@H](NC(=O)c1c[nH]c2ncc(-c3nn(C)c4cc(Cl)ccc34)nc12)[C@H]1C[C@H]1C#N` (single isomer, unassigned) [Example I-207]: the IC50 amounted to 5.45 nM.

For the molecule `Cn1nc(-c2cnc3[nH]cc(C(=O)N[C@@H](C(=O)N4CCC(C#N)CC4)C4CC4)c3n2)c2ccccc21` [Example I-1], the IC50 stood at 1.72 nM.

In the case of `Cn1nc(-c2cnc3[nH]cc(C(=O)N[C@@H](C(=O)N4CCC(C#N)CC4)C4CC4)c3n2)c2ccc(Cl)cc21` [Example I-2, 2-(6-Chloro-1-methyl-1H-indazol-3-yl)-5H-pyrrolo[2,3-b]pyrazine-7-carboxylic acid [(R)-2-(4-cyano-piperidin-1-yl)-1-cyclopropyl-2-oxo-ethyl]-amide], the IC50 was 0.575 nM.

Take `Cn1nc(-c2cnc3[nH]cc(C(=O)N[C@@H](C(=O)N4CCC(C#N)CC4)C4CC4)c3n2)c2cc(Cl)ccc21` [Example I-3, 2-(5-Chloro-1-methyl-1H-indazol-3-yl)-5H-pyrrolo[2,3-b]pyrazine-7-carboxylic acid [(R)-2-(4-cyano-piperidin-1-yl)-1-cyclopropyl-2-oxo-ethyl]-amide]: the IC50 is 1.06 nM.

As to `C[C@@H](NC(=O)c1c[nH]c2ncc(-c3nn(C)c4cc(Cl)c(Cl)cc34)nc12)C(=O)N1CC(C#N)C1` [Example I-6, 2-(5,6-Dichloro-1-methyl-1H-indazol-3-yl)-5H-pyrrolo[2,3-b]pyrazine-7-carboxylic acid [(R)-2-(3-cyano-azetidin-1-yl)-1-methyl-2-oxo-ethyl]-amide], the IC50 is 1.23 nM.

With `Cn1nc(-c2cnc3[nH]cc(C(=O)N[C@@H](C(=O)N4CCC(C#N)CC4)C(C)(C)C)c3n2)c2cc(Cl)ccc21` [Example I-8, 2-(5-Chloro-1-methyl-1H-indazol-3-yl)-5H-pyrrolo[2,3-b]pyrazine-7-carboxylic acid [(R)-1-(4-cyano-piperidine-1-carbonyl)-2,2-dimethyl-propyl]-amide], the IC50 was 2.83 nM.

In the case of `Cn1nc(-c2cnc3[nH]cc(C(=O)N[C@@H](C(=O)N4CCC(C#N)CC4)C4CC4)c3n2)c2ccc(C3CC3)cc21` [Example I-9, 2-(6-Cyclopropyl-1-methyl-1H-indazol-3-yl)-5H-pyrrolo[2,3-b]pyrazine-7-carboxylic acid [(R)-2-(4-cyano-piperidin-1-yl)-1-cyclopropyl-2-oxo-ethyl]-amide], the IC50 came out at 4.01 nM.

For `Cn1nc(-c2cnc3[nH]cc(C(=O)N[C@@H](C(=O)N4CCC(C#N)CC4)C4CC4)c3n2)c2c1CCCC2` [Example I-10, 2-(1-Methyl-4,5,6,7-tetrahydro-1H-indazol-3-yl)-5H-pyrrolo[2,3-b]pyrazine-7-carboxylic acid [(R)-2-(4-cyano-piperidin-1-yl)-1-cyclopropyl-2-oxo-ethyl]-amide], the IC50 was found to be 1.51 nM.

`C[C@H](NC(=O)c1c[nH]c2ncc(-c3nn(C)c4ccc(Cl)cc34)nc12)C(C)(C)C` [Example I-11, 2-(5-Chloro-1-methyl-1H-indazol-3-yl)-5H-pyrrolo[2,3-b]pyrazine-7-carboxylic acid ((S)-1,2,2-trimethyl-propyl)-amide]: the IC50 turned out to be 1.77 nM.

In the case of `C[C@@H](NC(=O)c1c[nH]c2ncc(-c3nn(C)c4cc(Cl)ccc34)nc12)C(C)(C)O` [Example I-12, 2-(6-Chloro-1-methyl-1H-indazol-3-yl)-5H-pyrrolo[2,3-b]pyrazine-7-carboxylic acid ((R)-2-hydroxy-1,2-dimethyl-propyl)-amide], the IC50 amounted to 19.2 nM.

In the case of `C[C@@H](NC(=O)c1c[nH]c2ncc(-c3nn(C)c4c3CC(C)(C)CC4)nc12)C(=O)N1CC(C#N)C1` [Example I-13], the IC50 was 31.1 nM.

Turning to `C[C@@H](NC(=O)c1c[nH]c2ncc(-c3nn(C)c4cc(Cl)ccc34)nc12)C(=O)N1CC(F)(F)C1` [Example I-14, 2-(6-Chloro-1-methyl-1H-indazol-3-yl)-5H-pyrrolo[2,3-b]pyrazine-7-carboxylic acid [(R)-2-(3,3-difluoro-azetidin-1-yl)-1-methyl-2-oxo-ethyl]-amide], the IC50 stood at 27.5 nM.

On to `Cn1nc(-c2cnc3[nH]cc(C(=O)N[C@@H]4CCCN(S(C)(=O)=O)C4)c3n2)c2ccc(Cl)cc21` [Example I-15, 2-(6-Chloro-1-methyl-1H-indazol-3-yl)-5H-pyrrolo[2,3-b]pyrazine-7-carboxylic acid ((R)-1-methanesulfonyl-piperidin-3-yl)-amide], for which the IC50 was determined as 13.6 nM.

For the next assay, the target named is T2, recombinant human SYK360-635 (Homo sapiens, UniProt P43405).
T2 construct: made in house
Put plainly: Determination of IC50 of Spleen Tyrosine Kinase (SYK) inhibition, 33P ATP filtration assay. It counts as biochemical. The note with it: SYK aa 360-635 0.5 nM; ATP 20 μM, peptide 5 μM, 0.1% BSA; read-out: SYK_ENZYME_FILTRATION/v1, BSA.
`Cn1nc(-c2cnc3[nH]cc(C(=O)NC4CCCC(NC(=O)OC(C)(C)C)C4)c3n2)c2ccc(Cl)cc21` (stereo not drawn) [Example I-442, (3-{[2-(6-Chloro-1-methyl-1H-indazol-3-yl)-5H-pyrrolo[2,3-b]pyrazine-7-carbonyl]-amino}-cyclohexyl)-carbamic acid tert-butyl ester]: the IC50 came out at 879 nM.

On to `Cn1nc(-c2cnc3[nH]cc(C(=O)NC4(CN)CC4)c3n2)c2ccc(F)cc21` [Example I-443, 2-(6-Fluoro-1-methyl-1H-indazol-3-yl)-5H-pyrrolo[2,3-b]pyrazine-7-carboxylic acid (1-aminomethyl-cyclopropyl)-amide], for which the IC50 came out at 656 nM.

Regarding `CC(C)(C)NC(=O)c1c[nH]c2ncc(-c3cccc4ccncc34)nc12` [Example I-444, 2-Isoquinolin-8-yl-5H-pyrrolo[2,3-b]pyrazine-7-carboxylic acid tert-butylamide], the IC50 is 1040 nM.

As to `Cc1ccc2c(-c3cnc4[nH]cc(C(=O)NC(C)(C)CO)c4n3)nn(CCN3CCOCC3)c2c1` [Example I-445, 2-[6-Methyl-1-(2-morpholin-4-yl-ethyl)-1H-indazol-3-yl]-5H-pyrrolo[2,3-b]pyrazine-7-carboxylic acid (2-hydroxy-1,1-dimethyl-ethyl)-amide], the IC50 came to 24.7 nM.

For the molecule `CC(O)CCn1nc(-c2cnc3[nH]cc(C(=O)NC(C)(C)C)c3n2)c2cc(OC(F)F)ccc21` (stereo not drawn) [Example I-447, N-tert-Butyl-2-(5-(difluoromethoxy)-1-(3-hydroxybutyl)-1H-indazol-3-yl)-5H-pyrrolo[3,2-b]pyrazine-7-carboxamide], the IC50 was 2.7 nM.

`Cn1nc(-c2cnc3[nH]cc(C(=O)NC(C)(C)C)c3n2)c2cc(OCCCC(C)(C)N)ccc21` [Example I-449, 2-(5-(4-Amino-4-methylpentyloxy)-1-methyl-1H-indazol-3-yl)-N-tert-butyl-5H-pyrrolo[3,2-b]pyrazine-7-carboxamide 2,2,2-trifluoroacetate]: the IC50 amounted to 46.9 nM.

Consider `CC(C)NC(=O)c1c[nH]c2ncc(-c3nn(CCCN(C)C)c4ccc(OC(F)F)cc34)nc12` [Example I-450], for which the IC50 stood at 13.3 nM.

Consider `Cn1ncc2c(-c3cnc4[nH]cc(C(=O)NC(C)(C)C)c4n3)cccc21` [Example I-451, N-tert-Butyl-2-(1-methyl-1H-indazol-4-yl)-5H-pyrrolo[3,2-b]pyrazine-7-carboxamide hydrochloride], for which the IC50 was 4.8 nM.

For the molecule `CN(C)CCCn1nc(-c2cnc3[nH]cc(C(=O)NC4(C)CC4)c3n2)c2cc(OC(F)F)ccc21` [Example I-452, 2-(5-(Difluoromethoxy)-1-(3-(dimethylamino)propyl)-1H-indazol-3-yl)-N-(1-methylcyclopropyl)-5H-pyrrolo[3,2-b]pyrazine-7-carboxamide trifluoroacetate], the IC50 stood at 13.9 nM.

For `CCNC(=O)c1c[nH]c2ncc(-c3nn(CCCN(C)C)c4ccc(OC(F)F)cc34)nc12` [Example I-453, 2-(5-(Difluoromethoxy)-1-(3-(dimethylamino)propyl)-1H-indazol-3-yl)-N-ethyl-5H-pyrrolo[3,2-b]pyrazine-7-carboxamide trifluoroacetate], the IC50 is 85.7 nM.

In the case of `CC(C)(N)CCCn1nc(-c2cnc3[nH]cc(C(=O)NC(C)(C)C)c3n2)c2cc(OC(F)F)ccc21` [Example I-454, 2-(1-(4-Amino-4-methylpentyl)-5-(difluoromethoxy)-1H-indazol-3-yl)-N-tert-butyl-5H-pyrrolo[3,2-b]pyrazine-7-carboxamide trifluoroacetate], the IC50 turned out to be 7.6 nM.

For `CC(C)c1ccc2c(c1)c(-c1cnc3[nH]cc(C(=O)NC(C)(C)C)c3n1)nn2C` [Example I-458, N-tert-Butyl-2-(5-isopropyl-1-methyl-1H-indazol-3-yl)-5H-pyrrolo[2,3-b]pyrazine-7-carboxamide], the IC50 worked out at 15.1 nM.

As for `Cn1nc(-c2cnc3[nH]cc(C(=O)NC(C)(C)C)c3n2)c2cc(S(C)(=O)=O)ccc21` [Example I-461, N-tert-Butyl-2-(1-methyl-5-(methylsulfonyl)-1H-indazol-3-yl)-5H-pyrrolo[3,2-b]pyrazine-7-carboxamide], the IC50 turned out to be 144 nM.

`CC(O)CCn1nc(-c2cnc3[nH]cc(C(=O)NC(C)(C)CO)c3n2)c2ccc(F)cc21` (stereo not drawn) [Example I-462, 2-(6-Fluoro-1-(3-hydroxybutyl)-1H-indazol-3-yl)-N-(1-hydroxy-2-methylpropan-2-yl)-5H-pyrrolo[3,2-b]pyrazine-7-carboxamide]: the IC50 stood at 17.6 nM.

`Cn1nc(-c2cnc3[nH]cc(C(=O)NCC4(O)CNC4)c3n2)c2ccc(F)cc21` [Example I-463, 2-(6-Fluoro-1-methyl-1H-indazol-3-yl)-N-((3-hydroxyazetidin-3-yl)methyl)-5H-pyrrolo[3,2-b]pyrazine-7-carboxamide trifluoroacetate]: the IC50 worked out at 5.42 nM.

The record behind these values is US8658646B2, “Pyrrolopyrazine kinase inhibitors” (Hoffmann-LaRoche Inc., priority 2011, dated 2014).
